What all share (type): in vivo, human
For assay [1], the system named is middle age person with knee pain. Description: Case report: knee pain, CMO with gabapentin. Conditions: 0.1 milligrams to 10 grams cetyl myristoleate once to four times per day with appropriate dosage gabapentin; one patient. The text has this:
A middle age person was taking a brief CMO regime for knee pain.

The test system of assay [2] is middle age person with complex regional pain syndrome. Nature of the assay: Case report: complex regional pain syndrome with post-surgery pain. How it is done: A middle age person with complex regional pain syndrome had post-surgery pain. It was so severe that the person was to have foot amputation for the pain. A dosage of 0.1 milligrams to 10 grams of cetyl myristoleate once to four times per day was administered to the person. Shortly, the person described the pain decreased by 20-30 percent.

The subject of assay [3] is middle age person with cervical post-surgery syndrome. Description: Case report: cervical post-surgery syndrome. Conditions: 0.1 milligrams to 10 grams cetyl myristoleate once to four times per day; one patient. An excerpt:
A middle age person experienced cervical post-surgery syndrome.

The test system of assay [4] is middle age person with shoulder pain. Description: Case report: shoulder pain, CMO with gabapentin. The following applies: 0.1 milligrams to 10 grams cetyl myristoleate once to four times per day with an effective dosage gabapentin; one patient. An excerpt:
A middle age person was taking a brief CMO regime for shoulder pain.

This is an account of results in patent publication US20190008819A1, “Methods and Compositions Using Cetyl Myristoleate (CMO) In Medical Treatments” (priority 2017, published 2019).

Turning to `CCCC/C=C\CCCCCCCC(=O)OCCCCCCCCCCCCCCCC` [cetyl myristoleate, cis-9-Cetyl myristoleate], the knee pain result in assay [1] was “decreased dramatically”. For the same compound, the “pain decreased (patient described)” value in assay [2] (0.1 milligrams to 10 grams cetyl myristoleate once to four times per day, one patient, post-surgery pain) was 20-30%. In addition, in assay [2] (patient was to have foot amputation for the pain, 0.1 milligrams to 10 grams once to four times per day), the amputation outcome is on record as “has not undergone amputation”. In addition, in assay [3], the “post-laminectomy syndrome (PLS)” value is recorded as “improved significantly”. Further, the shoulder pain entry in assay [4] is given as “decreased dramatically”.
